In ChEMBL document CHEMBL1201862, “PubChem BioAssay data set” (2004):
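Exposure lasted 48 hours, with cells grown in 96-well plates and compounds tested at five concentrations. The concentration for 50% growth inhibition is given as GI50.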 Active and inactive are the calls of the source. Cut-off read from the data, not from the text of the source: active = GI50 up to about 1.1 µM and inactive = higher.

Key:
Experiment in all cases: inhibition of tumour cell growth, NCI panel, 48 h
[1] = test system: 786-0
[2] = test system: A498
[3] = test system: A549
[4] = test system: ACHN
[5] = test system: BT-549
[6] = test system: CAKI-1
[7] = test system: CCRF-CEM
[8] = test system: COLO 205
[9] = test system: DU-145
[10] = test system: EKVX
[11] = test system: HCC 2998
[12] = test system: HCT-116
[13] = test system: HCT-15
[14] = test system: HOP-62
[15] = test system: HOP-92
[16] = test system: HT-29
[17] = test system: Hs-578T
[18] = test system: IGROV-1
[19] = test system: K562
[20] = test system: KM12
[21] = test system: M14
[22] = test system: MCF7
[23] = test system: MDA-MB-231
[24] = test system: MDA-MB-435
[25] = test system: MDA-N
[26] = test system: MOLT-4
[27] = test system: Malme-3M
[28] = test system: NCI-H23
[29] = test system: NCI-H460
[30] = test system: NCI-H522
[31] = test system: NCI/ADR-RES
[32] = test system: OVCAR-3
[33] = test system: OVCAR-4
[34] = test system: OVCAR-5
[35] = test system: OVCAR-8
[36] = test system: PC-3
[37] = test system: RPMI-8226
[38] = test system: RXF 393
[39] = test system: SF-268
[40] = test system: SF-295
[41] = test system: SK-MEL-28
[42] = test system: SK-MEL-2
[43] = test system: SK-MEL-5
[44] = test system: SK-OV-3
[45] = test system: SNB-19
[46] = test system: SNB-75
[47] = test system: SW-620
[48] = test system: TK-10
[49] = test system: U-251
[50] = test system: UACC-257
[51] = test system: UACC-62
[52] = test system: UO-31
[53] = test system: HL-60
[54] = test system: LOX IMVI
[55] = test system: NCI-H226
[56] = test system: SF-539
[57] = test system: SN12C
[58] = test system: SR
[59] = test system: T47D

## Cc1cc(-c2ccc[nH]2)on1
[1]
  GI50: > 100 µM (inactive)
[2]
  GI50: > 100 µM (inactive)
[3]
  GI50: > 100 µM (inactive)
[4]
  GI50: > 100 µM (inactive)
[5]
  GI50: > 100 µM (inactive)
[6]
  GI50: > 100 µM (inactive)
[7]
  GI50: > 100 µM (inactive)
[8]
  GI50: > 100 µM (inactive)
[9]
  GI50: > 100 µM (inactive)
[10]
  GI50: > 100 µM (inactive)
[11]
  GI50: > 100 µM (inactive)
[12]
  GI50: > 100 µM (inactive)
[13]
  GI50: > 100 µM
[14]
  GI50: > 100 µM (inactive)
[15]
  GI50: > 100 µM (inactive)
[16]
  GI50: > 100 µM (inactive)
[17]
  GI50: > 100 µM (inactive)
[18]
  GI50: > 100 µM (inactive)
[19]
  GI50: > 100 µM (inactive)
[20]
  GI50: > 100 µM (inactive)
[21]
  GI50: > 100 µM (inactive)
[22]
  GI50: > 100 µM (inactive)
[23]
  GI50: > 100 µM (inactive)
[24]
  GI50: > 100 µM (inactive)
[25]
  GI50: > 100 µM (inactive)
[26]
  GI50: > 100 µM (inactive)
[27]
  GI50: > 100 µM (inactive)
[28]
  GI50: > 100 µM (inactive)
[29]
  GI50: > 100 µM (inactive)
[30]
  GI50: > 100 µM (inactive)
[31]
  GI50: > 100 µM (inactive)
[32]
  GI50: > 100 µM (inactive)
[33]
  GI50: > 100 µM (inactive)
[34]
  GI50: > 100 µM (inactive)
[35]
  GI50: > 100 µM (inactive)
[36]
  GI50: > 100 µM (inactive)
[37]
  GI50: > 100 µM (inactive)
[38]
  GI50: > 100 µM (inactive)
[39]
  GI50: > 100 µM (inactive)
[40]
  GI50: > 100 µM (inactive)
[41]
  GI50: > 100 µM (inactive)
[42]
  GI50: > 100 µM (inactive)
[43]
  GI50: > 100 µM (inactive)
[44]
  GI50: > 100 µM (inactive)
[45]
  GI50: > 100 µM (inactive)
[46]
  GI50: > 100 µM (inactive)
[47]
  GI50: > 100 µM (inactive)
[48]
  GI50: > 100 µM (inactive)
[49]
  GI50: > 100 µM (inactive)
[50]
  GI50: > 100 µM (inactive)
[51]
  GI50: > 100 µM (inactive)
[52]
  GI50: > 100 µM (inactive)

## CCCNc1c(Cl)cc(Cl)c2[nH]c3ccccc3c(=O)c12
[1]
  GI50: 30.2 µM (inactive)
[2]
  GI50: 29.7 µM (inactive)
[3]
  GI50: 35.1 µM (inactive)
[4]
  GI50: 24 µM (inactive)
[5]
  GI50: 75.3 µM (inactive)
[6]
  GI50: 62.5 µM (inactive)
[7]
  GI50: 49.3 µM (inactive)
[8]
  GI50: 42 µM (inactive)
[10]
  GI50: 35.6 µM (inactive)
[11]
  GI50: 41.3 µM (inactive)
[12]
  GI50: 43.6 µM (inactive)
[13]
  GI50: 98.6 µM
[53]
  GI50: 16.2 µM (inactive)
[14]
  GI50: 56.1 µM (inactive)
[15]
  GI50: 3.42 µM (inactive)
[16]
  GI50: 22.5 µM (inactive)
[18]
  GI50: 24.5 µM (inactive)
[19]
  GI50: 28.3 µM (inactive)
[20]
  GI50: 27.2 µM (inactive)
[54]
  GI50: 33.7 µM (inactive)
[21]
  GI50: 55.7 µM (inactive)
[22]
  GI50: 28.4 µM (inactive)
[23]
  GI50: 77.1 µM (inactive)
[24]
  GI50: 39.9 µM (inactive)
[25]
  GI50: 50.6 µM (inactive)
[26]
  GI50: 32.5 µM (inactive)
[27]
  GI50: 43.3 µM (inactive)
[55]
  GI50: 38.2 µM (inactive)
[28]
  GI50: 27.7 µM (inactive)
[30]
  GI50: 37.1 µM (inactive)
[31]
  GI50: > 100 µM (inactive)
[32]
  GI50: 48.2 µM (inactive)
[33]
  GI50: > 100 µM (inactive)
[34]
  GI50: > 100 µM (inactive)
[35]
  GI50: 40.3 µM (inactive)
[36]
  GI50: 37.1 µM (inactive)
[37]
  GI50: 30.8 µM (inactive)
[40]
  GI50: 34.8 µM (inactive)
[56]
  GI50: 32.4 µM (inactive)
[41]
  GI50: > 100 µM (inactive)
[42]
  GI50: 39.9 µM (inactive)
[43]
  GI50: 32.7 µM (inactive)
[44]
  GI50: 75.9 µM (inactive)
[57]
  GI50: 95.9 µM (inactive)
[45]
  GI50: 18.4 µM (inactive)
[46]
  GI50: 31.5 µM (inactive)
[58]
  GI50: 58.3 µM (inactive)
[47]
  GI50: 88.5 µM (inactive)
[59]
  GI50: > 100 µM (inactive)
[48]
  GI50: 51.3 µM (inactive)
[49]
  GI50: 37.1 µM (inactive)
[50]
  GI50: 48.3 µM (inactive)
[51]
  GI50: 45.5 µM (inactive)
[52]
  GI50: 32.1 µM (inactive)
